Laboratory results as given in patent publication US11464763B2, “Parasiticidal compositions comprising an isoxazoline active agent, methods and uses thereof” (BOEHRINGER INGELHEIM ANIMAL HEALTH USA INC., priority 2011, dated 2022).

What was measured:
Type in all cases: in vivo
Otodectes cynotis = test: Spot-on efficacy against Otodectes cynotis (ear mites) in cats (Example 12); settings: live mite count Day 14
Protocol: The efficacy of two spot-on compositions comprising Compound A at doses of 5 mg/kg and 10 mg/kg against Otodectes cynotis in cats was evaluated compared to an untreated control. Eighteen healthy cats were grouped into three study groups consisting of six cats per group. Cats in the treatment groups were infested with Otodectes cynotis obtained from naturally infested donor cats prior to acclimation on Day −7. Group 1 was an untreated control group. Cats in Groups 2 and 3 were treated once on Day 0 with a spot-on composition comprising Compound A at two different concentrations and doses by application of the formulation directly on the skin in the midline of the neck between the base of the skull and the shoulder blades with a 1 mL disposable syringe. Cats in Group 2 were treated with a spot-on composition containing 5.0% (w/v) Compound A in a carrier containing 40% (v/v) diethyl sebacate (DES) in dimethylisosorbide (DMI) at a dose of 5 mg/kg body weight; and cats in Group 3 were treated with a spot-on composition containing 10.0% (w/v) Compound A in a carrier containing 40% (v/v) DES in DMI at a dose of 10 mg/kg body weight. […] Visible live ear mites (adult or immature) were counted and debris/cerumen level was estimated for both ear ducts. A quantitative assessment of ear mites by ear duct flushing, mite collection and live mite count was performed on Day 14. […]

Amblyomma americanum = test: Dose characterization of spot-on formulations against Amblyomma americanum ticks in dogs (Example 4)
Protocol: The efficacy of a spot-on composition of the invention comprising an isoxazoline compound (Cmpd. A) in a carrier vehicle comprising either DES alone or DES+lauryl lactate (LL), against ticks (Amblyomma americanum), in dogs was studied. The compositions contained 3.0%, 4.5%, or 6.0% Cmpd. A in either DES alone or DES+lauryl lactate, which delivered doses of […], respectively, of Cmpd. A to dogs infested with A. Americanum ticks.
Seven Treatment Groups were evaluated. Treatment Group 1 was administered a placebo formulation and served as a control. Treatment Groups 2, 3 and 4 were administered a topical formulation comprising 6.0% (w/v), 4.5% (w/v) and 3.0% (w/v) of Cmpd. A in DES, respectively, corresponding to doses of 4.0 mg/kg, 3.0 mg/kg and 2.0 mg/kg, respectively. Treatment Groups 5, 6 and 7 were administered a topical formulation comprising 6.0% (w/v), 4.5% (w/v) and 3.0% (w/v) of Cmpd. A in DES+9% lauryl lactate, respectively, corresponding to doses of […], 3.0 mg/kg and 2.0 mg/kg body weight Cmpd. A, respectively.
All dogs were treated once topically on Day 0 by parting the hair and applying the solution from a syringe directly onto the skin in a single spot on the midline of the neck between the base of the skull and the shoulder blades.
All dogs were infested with approximately 50 A. americanum on Days −1, 7, 14, 21, 28, 35 and 42. Ticks were counted upon removal on Days 2, 9, 16, 23, 30, 37 and 44. The % reduction of ticks for each Group is presented Table 5 below.

Haematobia irritans = test: Pour-on efficacy against Haematobia irritans (horn fly) in cattle (Example 14); settings: Group 2: pour-on 10% in DES, 1 ml/10 kg

With `O=C(CNC(=O)c1ccc(C2=NOC(c3cc(Cl)cc(C(F)(F)F)c3)(C(F)(F)F)C2)c2ccccc12)NCC(F)(F)F` (stereo not drawn) [Compound A, 4-[5-[3-chloro-5-(trifluoromethyl)phenyl]-4,5-dihydro-5-(trifluoromethyl)-3-isoxazolyl]-N-[2-oxo-2-[(2,2,2-trifluoroethyl)amino]ethyl]-1-naphthalanecarboxamide] the “reduced the infestation of ear mites” value (Otodectes cynotis; Group 2: 5.0% in 40% DES in DMI, 5 mg/kg) was 99.0%, the “reduced the infestation of ear mites” value (Otodectes cynotis; Group 3: 10.0% in 40% DES in DMI, 10 mg/kg) was 100.0% and the “% Reduction Ticks” value (Amblyomma americanum; Group 2: 6.0% in DES, 4.0 mg/kg, Day 2) was 97.4%. The “% Reduction Ticks” value (Amblyomma americanum; Group 2: 6.0% in DES, 4.0 mg/kg, Day 9) was 100.0%, the “% Reduction Ticks” value (Amblyomma americanum; Group 2: 6.0% in DES, 4.0 mg/kg, Day 16) was 100.0% and the “% Reduction Ticks” value (Amblyomma americanum; Group 2: 6.0% in DES, 4.0 mg/kg, Day 23) was 100.0%. For the same compound, the “% Reduction Ticks” value (Amblyomma americanum; Group 2: 6.0% in DES, 4.0 mg/kg, Day 30) was 82.5%, the “% Reduction Ticks” value (Amblyomma americanum; Group 2: 6.0% in DES, 4.0 mg/kg, Day 37) was 97.9% and the “% Reduction Ticks” value (Amblyomma americanum; Group 2: 6.0% in DES, 4.0 mg/kg, Day 44) was 84.2%. For the same compound, the “% Reduction Ticks” value (Amblyomma americanum; Group 3: 4.5% in DES, 3.0 mg/kg, Day 2) was 90.0%, the “% Reduction Ticks” value (Amblyomma americanum; Group 3: 4.5% in DES, 3.0 mg/kg, Day 9) was 100.0% and the “% Reduction Ticks” value (Amblyomma americanum; Group 3: 4.5% in DES, 3.0 mg/kg, Day 16) was 97.6%. The “% Reduction Ticks” value (Amblyomma americanum; Group 3: 4.5% in DES, 3.0 mg/kg, Day 23) was 82.0%, the “% Reduction Ticks” value (Amblyomma americanum; Group 3: 4.5% in DES, 3.0 mg/kg, Day 30) was 70.0% and the “% Reduction Ticks” value (Amblyomma americanum; Group 3: 4.5% in DES, 3.0 mg/kg, Day 37) was 80.4%. For the same compound, the “% Reduction Ticks” value (Amblyomma americanum; Group 3: 4.5% in DES, 3.0 mg/kg, Day 44) was 56.0%, the “% Reduction Ticks” value (Amblyomma americanum; Group 4: 3.0% in DES, 2.0 mg/kg, Day 2) was 95.4% and the “% Reduction Ticks” value (Amblyomma americanum; Group 4: 3.0% in DES, 2.0 mg/kg, Day 9) was 100.0%. For the same compound, the “% Reduction Ticks” value (Amblyomma americanum; Group 4: 3.0% in DES, 2.0 mg/kg, Day 16) was 100.0%, the “% Reduction Ticks” value (Amblyomma americanum; Group 4: 3.0% in DES, 2.0 mg/kg, Day 23) was 79.5% and the “% Reduction Ticks” value (Amblyomma americanum; Group 4: 3.0% in DES, 2.0 mg/kg, Day 30) was 90.3%. The “% Reduction Ticks” value (Amblyomma americanum; Group 4: 3.0% in DES, 2.0 mg/kg, Day 37) was 57.1%, the “% Reduction Ticks” value (Amblyomma americanum; Group 4: 3.0% in DES, 2.0 mg/kg, Day 44) was 38.8% and the “% Reduction Ticks” value (Amblyomma americanum; Group 5: 6.0% in DES+9% lauryl lactate, 4.0 mg/kg, Day 2) was 100.0%. For the same compound, the “% Reduction Ticks” value (Amblyomma americanum; Group 5: 6.0% in DES+9% lauryl lactate, 4.0 mg/kg, Day 9) was 100.0%, the “% Reduction Ticks” value (Amblyomma americanum; Group 5: 6.0% in DES+9% lauryl lactate, 4.0 mg/kg, Day 16) was 100.0% and the “% Reduction Ticks” value (Amblyomma americanum; Group 5: 6.0% in DES+9% lauryl lactate, 4.0 mg/kg, Day 23) was 94.3%. For the same compound, the “% Reduction Ticks” value (Amblyomma americanum; Group 5: 6.0% in DES+9% lauryl lactate, 4.0 mg/kg, Day 30) was 100.0%, the “% Reduction Ticks” value (Amblyomma americanum; Group 5: 6.0% in DES+9% lauryl lactate, 4.0 mg/kg, Day 37) was 89.0% and the “% Reduction Ticks” value (Amblyomma americanum; Group 5: 6.0% in DES+9% lauryl lactate, 4.0 mg/kg, Day 44) was 84.8%. The “% Reduction Ticks” value (Amblyomma americanum; Group 6: 4.5% in DES+9% lauryl lactate, 3.0 mg/kg, Day 2) was 98.4%, the “% Reduction Ticks” value (Amblyomma americanum; Group 6: 4.5% in DES+9% lauryl lactate, 3.0 mg/kg, Day 9) was 100.0% and the “% Reduction Ticks” value (Amblyomma americanum; Group 6: 4.5% in DES+9% lauryl lactate, 3.0 mg/kg, Day 16) was 100.0%. The “% Reduction Ticks” value (Amblyomma americanum; Group 6: 4.5% in DES+9% lauryl lactate, 3.0 mg/kg, Day 23) was 93.1%, the “% Reduction Ticks” value (Amblyomma americanum; Group 6: 4.5% in DES+9% lauryl lactate, 3.0 mg/kg, Day 30) was 92.1% and the “% Reduction Ticks” value (Amblyomma americanum; Group 6: 4.5% in DES+9% lauryl lactate, 3.0 mg/kg, Day 37) was 89.0%. For the same compound, the “% Reduction Ticks” value (Amblyomma americanum; Group 6: 4.5% in DES+9% lauryl lactate, 3.0 mg/kg, Day 44) was 53.6%, the “% Reduction Ticks” value (Amblyomma americanum; Group 7: 3.0% in DES+9% lauryl lactate, 2.0 mg/kg, Day 2) was 98.4% and the “% Reduction Ticks” value (Amblyomma americanum; Group 7: 3.0% in DES+9% lauryl lactate, 2.0 mg/kg, Day 9) was 100.0%. The “% Reduction Ticks” value (Amblyomma americanum; Group 7: 3.0% in DES+9% lauryl lactate, 2.0 mg/kg, Day 16) was 100.0%, the “% Reduction Ticks” value (Amblyomma americanum; Group 7: 3.0% in DES+9% lauryl lactate, 2.0 mg/kg, Day 23) was 80.6% and the “% Reduction Ticks” value (Amblyomma americanum; Group 7: 3.0% in DES+9% lauryl lactate, 2.0 mg/kg, Day 30) was 88.9%. For the same compound, the “% Reduction Ticks” value (Amblyomma americanum; Group 7: 3.0% in DES+9% lauryl lactate, 2.0 mg/kg, Day 37) was 74.6%, the “% Reduction Ticks” value (Amblyomma americanum; Group 7: 3.0% in DES+9% lauryl lactate, 2.0 mg/kg, Day 44) was 42.4% and the efficacy against ticks (Amblyomma americanum; Treatment Group 2 (4.0 mg/kg in DES alone), through Week 3) was “at least 90%”. The efficacy against ticks (Amblyomma americanum; Treatment Groups 5 and 6 (4.0 and 3.0 mg/kg in DES+LL), through five weeks) was “at least 90%”, the “% Reduction” value (Haematobia irritans; Day 35 (5 h)) was 42.6% and the “% Reduction” value (Haematobia irritans; Day 36 (24 h)) was 90.4%.
